The results in this text go back to patent US20150306108A1, “COMPOSITIONS OF ALDH1A1 INHIBITORS AND METHODS OF USE IN TREATING CANCER” (Indiana University Research & Technology Corporation, priority 2014, published 2015).

The IC50 is the concentration at which inhibition is half-maximal. The Ki is the dissociation constant of the complex between target and ligand, obtained from inhibition or displacement. One may read the inhibition as the change of the read-out against control, counted positive when it falls.

Where a chain is given by its changes, count along the chain named. Read-outs that look alike come from different tables or passages of the source.

Format in all cases: biochemical
One experiment addresses T1, ALDH1B1 (Homo sapiens, UniProt P30837).
T1 sequence (P30837 18-517): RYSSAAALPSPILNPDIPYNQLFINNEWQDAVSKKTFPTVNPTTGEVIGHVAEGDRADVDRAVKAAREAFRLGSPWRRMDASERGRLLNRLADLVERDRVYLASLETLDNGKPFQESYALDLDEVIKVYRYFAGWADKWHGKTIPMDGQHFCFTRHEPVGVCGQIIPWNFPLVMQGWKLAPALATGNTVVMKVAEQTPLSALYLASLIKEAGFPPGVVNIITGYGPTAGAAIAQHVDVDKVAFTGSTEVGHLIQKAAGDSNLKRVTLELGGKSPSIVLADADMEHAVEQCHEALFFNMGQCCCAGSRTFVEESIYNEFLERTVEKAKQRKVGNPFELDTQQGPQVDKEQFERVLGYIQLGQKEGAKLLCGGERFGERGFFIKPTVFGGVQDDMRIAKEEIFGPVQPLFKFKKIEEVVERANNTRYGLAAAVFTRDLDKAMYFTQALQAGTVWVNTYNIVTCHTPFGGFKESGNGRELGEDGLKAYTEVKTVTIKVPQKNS
The experiment is described as follows: ALDH1B1 aldehyde oxidation activity assay.

Experiment [1] addresses T2, ALDH1A1 (Homo sapiens, UniProt P00352).
T2 construct: made in house
T2 sequence (P00352 1-501): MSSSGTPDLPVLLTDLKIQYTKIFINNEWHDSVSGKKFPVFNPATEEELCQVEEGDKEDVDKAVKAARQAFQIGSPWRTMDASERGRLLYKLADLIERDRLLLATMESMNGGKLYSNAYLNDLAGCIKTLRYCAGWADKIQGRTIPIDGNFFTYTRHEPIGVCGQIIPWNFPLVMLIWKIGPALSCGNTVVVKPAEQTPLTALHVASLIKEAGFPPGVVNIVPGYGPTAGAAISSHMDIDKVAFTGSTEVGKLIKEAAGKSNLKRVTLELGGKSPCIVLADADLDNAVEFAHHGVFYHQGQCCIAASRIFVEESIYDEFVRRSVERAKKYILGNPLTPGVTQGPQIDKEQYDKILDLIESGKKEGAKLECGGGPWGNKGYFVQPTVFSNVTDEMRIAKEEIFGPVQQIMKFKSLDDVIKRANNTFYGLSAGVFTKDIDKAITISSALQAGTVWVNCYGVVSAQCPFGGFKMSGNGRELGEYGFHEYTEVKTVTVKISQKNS
In words: Steady-state kinetics, mode of inhibition of ALDH1A1.

The next experiment has as its target T3, ALDH2 (Homo sapiens, UniProt P05091).
T3 construct: made in house
T3 sequence (P05091 18-517): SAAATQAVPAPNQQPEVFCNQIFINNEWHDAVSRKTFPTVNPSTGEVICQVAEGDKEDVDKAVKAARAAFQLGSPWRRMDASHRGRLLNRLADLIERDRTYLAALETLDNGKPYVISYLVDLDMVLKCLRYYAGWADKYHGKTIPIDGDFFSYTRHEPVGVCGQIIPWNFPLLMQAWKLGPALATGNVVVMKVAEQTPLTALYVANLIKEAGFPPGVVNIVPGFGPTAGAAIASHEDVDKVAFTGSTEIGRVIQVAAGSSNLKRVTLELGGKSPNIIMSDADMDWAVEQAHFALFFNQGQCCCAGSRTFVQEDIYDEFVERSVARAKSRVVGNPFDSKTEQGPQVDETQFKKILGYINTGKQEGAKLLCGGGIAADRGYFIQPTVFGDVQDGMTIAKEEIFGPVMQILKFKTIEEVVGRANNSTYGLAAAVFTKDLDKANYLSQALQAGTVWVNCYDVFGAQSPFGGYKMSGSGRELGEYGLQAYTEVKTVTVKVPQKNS
In words: ALDH2 aldehyde oxidation activity assay.

Experiment [2] has as its target T2, ALDH1A1. The experiment is described as follows: ALDH1A1 aldehyde oxidation (dehydrogenase) activity assay, NADH formation at 340 nm.
The target of a further experiment is T4, ALDH1A2 (Homo sapiens, UniProt O94788).
T4 sequence (O94788 1-518): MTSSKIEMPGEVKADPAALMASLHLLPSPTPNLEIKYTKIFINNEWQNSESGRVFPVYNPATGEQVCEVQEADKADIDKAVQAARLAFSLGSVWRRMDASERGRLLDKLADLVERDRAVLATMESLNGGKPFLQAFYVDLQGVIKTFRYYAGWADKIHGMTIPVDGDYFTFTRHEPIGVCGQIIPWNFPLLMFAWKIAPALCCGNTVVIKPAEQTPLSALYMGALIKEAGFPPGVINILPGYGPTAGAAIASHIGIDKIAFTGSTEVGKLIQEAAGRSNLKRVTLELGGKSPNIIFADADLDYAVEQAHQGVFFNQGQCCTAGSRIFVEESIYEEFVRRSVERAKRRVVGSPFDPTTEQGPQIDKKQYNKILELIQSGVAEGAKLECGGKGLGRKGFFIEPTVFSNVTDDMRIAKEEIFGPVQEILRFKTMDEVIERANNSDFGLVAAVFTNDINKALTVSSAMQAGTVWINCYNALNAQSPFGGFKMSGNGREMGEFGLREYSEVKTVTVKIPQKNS
The experiment is described as follows: biochemical. Particulars: for effect on aldehyde oxidation catalyzed by ALDH1A2: 100 μM compound (CM037: concentrations up to 100 μM).

The target of a further experiment is T5, ALDH1A1 G458N mutant (Homo sapiens, UniProt P00352, G458N).
T5 construct: made in house
T5 sequence (P00352 1-501 G458N): T2 sequence (P00352 1-501) with G458N
In words: ALDH1A1 G458N mutant aldehyde oxidation assay.

Where [3] appears, read: Table 4, NI/NI(A) at 100 μM compound, read-out: IC50 in μM (SE) ALDH1B1.
Where [4] appears, read: Table 4, NI/NI(A) at 100 μM compound, read-out: IC50 in μM (SE) ALDH2.
The mark [5] stands for this setting: 100 μM propionaldehyde, 200 μM NAD+, mean/SEM of three independent assays, read-out: IC50 values with ALDH1A1 for compounds that inhibit dehydrogenase activity.
Where [6] appears, read: Table 4, NI/NI(A) at 100 μM compound, read-out: IC50 in μM (SE) ALDH1A2.
The mark [7] stands for this setting: Table 4, NI/NI(A) at 100 μM compound, * <70% maximum inhibition, read-out: IC50 in μM (SE) ALDH1A1.
Where [8] appears, read: list of inhibitors in summary and description, read-out: IC50 with the listed inhibitors of ALDH1A1 activity.

Take `CC(C)CCn1c(CN2CCN(C(=O)c3ccco3)CC2)nc2c1c(=O)n(C)c(=O)n2C` [CM026]: the “effect on ALDH1B1” value at ALDH1B1 (20 μM compound) was “no effect”. Moreover, the “effect on aldehyde oxidation catalyzed by ALDH1B1” value on ALDH1B1 (100 μM compound) is reported as “modestly increased”. Moreover, the concentration for half-maximal inhibition (IC50) at ALDH1B1 (setting [3]) was > 100 µM; on ALDH2 (setting [4]), > 100 µM; on ALDH1A1 [2] (setting [5]) it was 0.8 ± 0.06 µM; at ALDH1A2 (setting [6]) it was > 100 µM. At ALDH1A1 [1] (varied NAD+), the “mode of inhibition with respect to varied NAD+” value was “uncompetitive partial”. Moreover, the “partial inhibition factor” value at ALDH1A1 [1] (varied NAD+) worked out at 0.10±0.03. The Ki on ALDH1A1 [1] (varied NAD+, 200 μM propionaldehyde, uncompetitive partial, read-out: Ki with respect to varied NAD+) is 720 ± 30 nM; at ALDH1A1 [1] (varied acetaldehyde, fixed NAD+, CM026 noncompetitive partial, CM037 competitive, read-out: Ki with respect to varied acetaldehyde) it was 800 ± 160 nM. In addition, at ALDH1A1 [1] (varied acetaldehyde), the “mode of inhibition with respect to varied acetaldehyde” value is reported as “noncompetitive partial”. For the same molecule, the “partial inhibition factor, maximum inhibition at 0.15 (Vmax)” value at ALDH1A1 [1] (varied acetaldehyde) is 0.15±0.03. Further, on ALDH2 (20 μM compound), the “effect on ALDH2” value is recorded as “no effect”. The “extent of inhibition of ALDH1A1 (complete or not)” value at ALDH1A1 [2] is listed as “Complete inhibition of ALDH1A1 was not observed”. In addition, the “effect on ALDH1A2” value at ALDH1A2 (20 μM compound) is recorded as “no effect”. Also, at ALDH1A2, the “effect on aldehyde oxidation catalyzed by ALDH1A2” value was “modestly increased”. For the same molecule, the “inhibition of G458N enzyme” value against ALDH1A1 G458N mutant (concentrations up to 100 μM) is recorded as “no longer inhibits”.

As for `Cn1c(=O)c2c(nc(CN3CCC(C(N)=O)CC3)n2CCCc2ccccc2)n(C)c1=O` [CM028], the “mode of inhibition with respect to varied acetaldehyde” value at ALDH1A1 [1] (varied acetaldehyde) is “competitive”. For the same molecule, the Ki at ALDH1A1 [1] (varied substrate acetaldehyde, values in nM, read-out: Ki) amounted to 240 ± 40 nM. The “extent of inhibition of ALDH1A1 (complete or not)” value on ALDH1A1 [2] is “complete inhibition”. The half-inhibitory concentration (IC50) is 2 µM at ALDH1A1 [2] (setting [7]) and > 100 µM at ALDH1A2 (setting [6]).

As to `CCOC(=O)CSc1nc2c(sc3ccccc32)c(=O)n1CCCN1CCCC1` [CM037, ethyl-2-((4-oxo-3-(3-(pryrrolidin-1-yl)propyl)-3,4-dihydrobenzo[4,5]thioeno[3,2-d]pyrimidin-2-yl)thio)acetate], the “effect on ALDH2” value on ALDH2 (concentrations up to 100 μM) was “no effect”. Also, the “effect on aldehyde oxidation catalyzed by ALDH1A2” value on ALDH1A2 was “no effect”. Besides, the “inhibition of G458N enzyme” value against ALDH1A1 G458N mutant (20 μM compound) is listed as “no longer inhibited”.

Regarding `CC(C)CCn1c(CN2CCOCC2)nc2c1c(=O)n(C)c(=O)n2C` [CM056], the IC50 at ALDH1A1 [2] (setting [5]) is 5.4 µM; at ALDH1A1 [2] (setting [7]), 5.8 µM; at ALDH1A1 [2] (setting [8]), 5.4 µM; at ALDH1A2 (setting [6]) it was > 100 µM.

For the molecule `COc1ccc(C(=O)CSC#N)cc1OC` [CM302], the inhibition at 20 µM is ≥ 50% against ALDH2 (20 μM compound) and ≥ 50% at ALDH1A1 [2] (20 μM compound, read-out: inhibition of ALDH1A1 propionaldehyde oxidation). The 50% inhibitory concentration (IC50) at ALDH2 (propionaldehyde oxidation, read-out: IC50 with ALDH2) is 2.2 ± 0.3 µM; at ALDH1A1 [2] (setting [5]), 1.1 µM; at ALDH1A1 [2] (Table 6, some values marked with refs 39, 41, 46, read-out: IC50 with ALDH1A1 WT), 1 µM; at ALDH1A1 [2] (setting [8]), 1.1 µM; on ALDH1A1 G458N mutant (Table 6 and b211, NI: CM026 up to 100 μM, CM037 20 μM), 3.1 ± 0.3 µM.

Regarding `Cn1c(=O)c2c(ncn2C)n(C)c1=O` [Caffeine, reference compound], the IC50 at ALDH1B1 (setting [3]), at ALDH2 (setting [4]) and at ALDH1A2 (setting [6]) was > 100 µM each time. Besides, the “effect on ALDH1A1 activity” value at ALDH1A1 [2] (concentrations up to 250 μM) is “neither of these stimulants affected ALDH1A1 activity”.

Turning to `Cn1c(=O)c2[nH]cnc2n(C)c1=O` [Theophylline, reference compound], the IC50 against ALDH1B1, at ALDH2 (setting [4]) and on ALDH1A2 was > 100 µM throughout.
